A value given as a limit tells only on which side of the number the result lay.

This is an account of results in patent US6555550B1, “Musarinic agonists and antagonists” (UCB, S. A.,, priority 1998, dated 2003).

One data set addresses T1, cloned human M4 mAChRs (Homo sapiens, UniProt P08173).
T1 construct: expressed in transfected cells; host or cells: CHO-K1 cells (membrane preparation)
T1 sequence (P08173 1-479): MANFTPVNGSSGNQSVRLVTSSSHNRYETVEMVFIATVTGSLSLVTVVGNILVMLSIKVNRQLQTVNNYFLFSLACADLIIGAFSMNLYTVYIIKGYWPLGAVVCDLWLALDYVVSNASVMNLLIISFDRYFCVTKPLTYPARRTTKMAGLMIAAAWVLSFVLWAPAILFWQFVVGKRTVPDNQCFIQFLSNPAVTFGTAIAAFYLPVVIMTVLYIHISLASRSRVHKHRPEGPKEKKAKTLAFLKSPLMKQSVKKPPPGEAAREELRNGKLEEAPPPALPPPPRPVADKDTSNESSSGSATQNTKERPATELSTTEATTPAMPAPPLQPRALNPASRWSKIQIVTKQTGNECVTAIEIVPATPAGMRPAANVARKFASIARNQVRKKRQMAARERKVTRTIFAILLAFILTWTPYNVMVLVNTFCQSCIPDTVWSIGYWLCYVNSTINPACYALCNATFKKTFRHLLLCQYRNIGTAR
Briefly: Binding to cloned human M4 mAChRs expressed in CHO-Kl cells. The conditions noted are these: 2.5 nM 3H-oxotremorine M, CHO-Kl M4 membranes, pH 7. Here is the method: Binding to Cloned Human M4 […] Expressed in CHO-Kl Cells
The following protocol was used to detect binding to cloned human M4 mAChRs expressed in CHO-Kl cells.
A membrane preparation was made from CHO-Kl cells expressing human M4 mAChRs. Aliquots of membrane were stored at −70° C. until thawed on the day of assay. For each assay, CHO-Kl M4 membrane preparation (approximately 20 μg of protein) was incubated with test compound and 2.5 nM ^3H-oxotremorine M (DuPont, NEN) in 20 mM HEPES buffer, pH 7 in an assay volume of 200 μl. Assays were incubated in 96-well polypropylene plates for 40 minutes at room temperature. Nonspecific binding was determined in samples incubated in parallel in the presence of 10 μM atropine (Sigma) instead of test compound. The incubations were terminated by rapid vacuum filtration using a Packard plate harvester through 96-well Whatman GF/B filter plates presoaked in 0.5% polyethylenimine. The filter plate was washed rapidly four times with 0.2 ml aliquots of water. The plate was dried by placing under a heat lamp for 5 minutes. The plate was counted using a Packard scintillation counter after addition of 35 μl Microscint 20 scintillation fluid. Data were analyzed by nonlinear regression analysis.
Results from this assay are used to show the ability of compounds of this invention to bind to the agonist binding site of the muscarinic M4 receptor. Compounds which bind to this site have specific utility in the treatment of pain, schizophrenic disorders and cognitive disorders such as AD.

The subject of data set [1] is Female CD-1 mice. As to the kind of experiment: Sedation by visual inspection. In kind it is in vivo. The conditions noted are these: at tail-flick ED50 dose. From the text: Sedation was noted by close visual inspection of the animal.
The test system of data set [2] is Female CD-1 mice. As to the kind of experiment: Tail-flick assay. It is filed as in vivo. The conditions noted are these: injection, % MPE, 10-second cut-off; for ED50: Mus musculus. The source says: The tail flick assay is a commonly used animal model of analgesia. It is a stringent enough assay such that opiates (e.g., morphine) show activity in this model, whereas the non-steroidal antiinflammatories (NSAD's) such as ibuprofen are ineffective. As such, it is a useful assay system for investigating the utility of novel compounds for the treatment of severe and chronic pain.
Female CD-1 mice, weighing 20-30 grams were obtained from Charles River laboratories (Wilmington, Mass., USA). A commercially available tail-flick analgesia meter was used (Model TF-6 Analgesia Meter, Emdie Instrument Co., Maidens, Va.). […] A 10-second cut-off time was used as the maximum latency to avoid damage to the mice tails. The latency of each mouse (a mean of two separate test results for each time-point), was obtained at 0 (immediately prior to dosing), 5, 15, 30, and 60 min. time-points after injection of compounds and the % Maximum Possible Effect (% MPE) was calculated by using the formula, % MPE=[(postdrug latency−predrug latency)÷(cutoff time−predrug latency)]×100.

The subject of data set [3] is Female CD-1 mice. Briefly: Body temperature (rectal probe). It is filed as in vivo. The conditions noted are these: at tail-flick ED50 dose; core temperature. Here is the method:
At ambient temperature, a temperature probe (type T Thermocouple Thermometer, BAT-10; Physitemp Inc., Clifton, N.J.) was inserted 1.0 cm into the rectum of mice to measure their core temperature and recorded at 0 (before drug as a control baseline), 10, 25 and 55 min after injection of compounds.

For the compound `Clc1nsnc1C1C2CC3CC1CN(C3)C2` (stereo not shown) [Cmpd 7, 3-(5-Azatricyclo[3.3.1.1<3,7>]dec-2-yl)-4-chloro-1,2,5-thiadiazole], the “Human M4 in CHO-K1 Assay” value at cloned human M4 mAChRs is reported as more than 88 nM.
As a reminder, the ED50 is the dose that gives a 50% effect, or the effect in half of the subjects. A lower ED50 goes with greater potency. `CCCOc1nsnc1C1C2CC3CC1CN(C3)C2` (stereo not shown) [Cmpd 12, 3-(5-azatricyclo[3.3.1.1<3,7>]dec-2-yl)-4-propoxy-1,2,5-thiadiazole]: the “Side Effect Profile at ED50 Dose: Sedation” value with Female CD-1 mice [1] is listed as “Slight”. In addition, in the data set with Female CD-1 mice [2], it took a dose of 4.5 mg/kg to reach the 50% effect level (ED50). Also, the “Side Effect Profile at ED50 Dose: Hypothermia” value in the data set on Female CD-1 mice [3] is 1.0 °C. Moreover, the “Human M4 in CHO-K1 Assay” value on cloned human M4 mAChRs came out at 0.74 nM.
Regarding `CCCCOc1nsnc1C1C2CC3CC1CN(C3)C2` (stereo not shown) [Cmpd 13, 3-(5-azatricyclo[3.3.1.1<3,7>]dec-2-yl)-4-butoxy-1,2,5-thiadiazole], the “Human M4 in CHO-K1 Assay” value at cloned human M4 mAChRs amounted to 10 nM.
With `CCCCOc1nsnc1C1C2CC3CC1CN(C3)C2` (stereo not shown) [Cmpd 14, 3-(5-azatricyclo[3.3.1.1<3,7>]dec-2-yl)-4-butoxy-1,2,5-thiadiazole], the “Side Effect Profile at ED50 Dose: Sedation” value with Female CD-1 mice [1] is recorded as “Slight”. In the data set with Female CD-1 mice [2], the ED50 is more than 10 mg/kg. The “Side Effect Profile at ED50 Dose: Hypothermia” value in the data set on Female CD-1 mice [3] was 2.0 °C. The “Human M4 in CHO-K1 Assay” value at cloned human M4 mAChRs is listed as 3.8 nM.
Turning to `C1CC1COc1nsnc1C1C2CC3CC1CN(C3)C2` (stereo not shown) [Cmpd 16, 3-(5-azatricyclo[3.3.1.1<3,7>]dec-2-yl)-4-(cyclopropylmethoxy)1,2,5-thiadiazole], in the data set with Female CD-1 mice [1], the “Side Effect Profile at ED50 Dose: Sedation” value is listed as “Sedation”. The 50% effect level in the data set on Female CD-1 mice [2] (ED50) was put at a dose of 1.4 mg/kg. The “Side Effect Profile at ED50 Dose: Hypothermia” value in the data set on Female CD-1 mice [3] is 1.5 °C. Also, the “Human M4 in CHO-K1 Assay” value at cloned human M4 mAChRs is on record as less than 1.4 nM.
In the case of `CC(C)COc1nsnc1C1C2CC3CC1CN(C3)C2` (stereo not shown) [Cmpd 18, 3-(5-azatricyclo[3.3.1.1<3,7>]dec-2-yl)-4-(2-methyl-propoxy)-1,2,5-thiadiazole], the “Side Effect Profile at ED50 Dose: Sedation” value in the data set with Female CD-1 mice [1] was “No sedation”. This compound registered an ED50 in the data set on Female CD-1 mice [2] of more than 5 mg/kg. In addition, the “Side Effect Profile at ED50 Dose: Hypothermia” value in the data set with Female CD-1 mice [3] was found to be 0 °C.
In the case of `COc1nsnc1C1C2CC3CC1CN(C3)C2` (stereo not shown) [Cmpd 21, 3-(5-azatricyclo[3.3.1.1<3,7>]dec-2-yl)-4-methoxy-1,2,5-thiadiazoles], in the data set with Female CD-1 mice [1], the “Side Effect Profile at ED50 Dose: Sedation” value was “No sedation”. The “Tail-Flick ED50” value in the data set with Female CD-1 mice [2] is more than 5 mg/kg. Moreover, the “Side Effect Profile at ED50 Dose: Hypothermia” value with Female CD-1 mice [3] worked out at 0 °C. The “Human M4 in CHO-K1 Assay” value on cloned human M4 mAChRs is given as 5.9 nM.
Consider `CCOc1nsnc1C1C2CC3CC1CN(C3)C2` (stereo not shown) [Cmpd 23, 3-(5-azatricyclo[3.3.1.1<3,7>]dec-2-yl)-4-ethoxy-1,2,5-thiadiazoles], for which the “Side Effect Profile at ED50 Dose: Sedation” value with Female CD-1 mice [1] is “No sedation”. Besides, the “Tail-Flick ED50” value with Female CD-1 mice [2] is 1.5 mg/kg. Also, the “Side Effect Profile at ED50 Dose: Hypothermia” value with Female CD-1 mice [3] was 0.5 °C. For the same compound, the “Human M4 in CHO-K1 Assay” value at cloned human M4 mAChRs is 0.46 nM.
As to `C(CC1CC1)Oc1nsnc1C1C2CC3CC1CN(C3)C2` (stereo not shown) [Cmpd 25, 3-(5-azatricyclo[3.3.1.1<3,7>]dec-2-yl)-4-(cyclopropylethoxy)-1,2,5-thiadiazoles], the “Side Effect Profile at ED50 Dose: Sedation” value in the data set on Female CD-1 mice [1] is “Slight”. Moreover, in the data set with Female CD-1 mice [2], the “Tail-Flick ED50” value was determined as 4.5 mg/kg. Also, in the data set on Female CD-1 mice [3], the “Side Effect Profile at ED50 Dose: Hypothermia” value came to 1.5 °C.
With `CCC(C)Oc1nsnc1C1C2CC3CC1CN(C3)C2` (stereo not shown) [Cmpd 27, 3-(5-azatricyclo[3.3.1.1<3,7>]dec-2-yl)-4-(1-methyl-propoxy)-1,2,5-thiadiazoles], the “Side Effect Profile at ED50 Dose: Sedation” value with Female CD-1 mice [1] is on record as “No sedation”. Further, the “Tail-Flick ED50” value in the data set on Female CD-1 mice [2] is more than 5 mg/kg. The “Side Effect Profile at ED50 Dose: Hypothermia” value in the data set with Female CD-1 mice [3] worked out at 0 °C. Further, the “Human M4 in CHO-K1 Assay” value at cloned human M4 mAChRs is listed as 1.55 nM.
In the case of `CCCSc1nsnc1C1C2CC3CC1CN(C3)C2` (stereo not shown) [Cmpd 29, 3-(5-Azatricyclo[3.3.1.1<3,7>]dec-2-yl)-4-propylthio-1,2,5-thiadiazoles], in the data set with Female CD-1 mice [1], the “Side Effect Profile at ED50 Dose: Sedation” value is “Very slight”. In the data set on Female CD-1 mice [2], the “Tail-Flick ED50” value was less than 1 mg/kg. Besides, the “Side Effect Profile at ED50 Dose: Hypothermia” value with Female CD-1 mice [3] turned out to be 0.5 °C.
In the case of `CCSc1nsnc1C1C2CC3CC1CN(C3)C2` (stereo not shown) [Cmpd 30, 3-(5-Azatricyclo[3.3.1.1<3,7>]dec-2-yl)-4-ethylthio-1,2,5-thiadiazole], the “Side Effect Profile at ED50 Dose: Sedation” value in the data set on Female CD-1 mice [1] was “Sedation”. The compound also came in with an ED50 in the data set with Female CD-1 mice [2] of 0.3 mg/kg. Further, the “Side Effect Profile at ED50 Dose: Hypothermia” value with Female CD-1 mice [3] is 1 °C.
Taken in the same sequence, the figures for `CCCCSc1nsnc1C1C2CC3CC1CN(C3)C2` (stereo not shown) [Cmpd 31, 3-(5-Azatricyclo[3.3.1.1<3,7>]dec-2-yl)-4-butylthio-1,2,5-thiadiazole] were “No sedation”, 0.3 mg/kg and 0 °C.
Taken in the same sequence, the figures for `C1CC1CSc1nsnc1C1C2CC3CC1CN(C3)C2` (stereo not shown) [Cmpd 32, 3-(5-Azatricyclo[3.3.1.1<3,7>]dec-2-yl)-4-(cyclopropylmethyl)thio-1,2,5-thiadiazole] were “Sedation”, less than 1 mg/kg and less than 2 °C.
Regarding `CCOc1nsnc1C1C2CC3CC1CN3C2` (stereo not shown) [Cmpd 34, 4-(3-Azatricyclo[3.3.1.0<3,7>]non-9-yl)-3-ethoxy-1,2,5-thiadiazoles], in the data set with Female CD-1 mice [2], the “Tail-Flick ED50” value is recorded as more than 2 mg/kg. Also, the “Human M4 in CHO-K1 Assay” value on cloned human M4 mAChRs was 4.6 nM.
Taken in the same sequence, the figures for `CCCOc1nsnc1C1C2CC3CC1CN3C2` (stereo not shown) [Cmpd 36, 4-(3-Azatricyclo[3.3.1.0<3,7>]non-9-yl)-3-propyloxy-1,2,5-thiadiazoles] were more than 5 mg/kg and 3.2 nM.
For the compound `CC(C)COc1nsnc1C1C2CC3CC1CN3C2` (stereo not shown) [Cmpd 38, 4-(3-Azatricyclo[3.3.1.0<3,7>]non-9-yl)-3-isobutyloxy-1,2,5-thiadiazoles], the “Tail-Flick ED50” value in the data set with Female CD-1 mice [2] is more than 5 mg/kg.
